Measurements: patent US9598420B2, “Benzodiazepine bromodomain inhibitor” (GlaxoSmithKline LLC, priority 2009, dated 2017)

Experiments:
[1] = tested on: LPS induced IL-6 secretion from whole blood; assay: Measurement of LPS Induced IL-6 Secretion from Whole Blood; format: cell-based; details: LPS 200 ng/ml, 24 hours, immunoassay, read-out: pIC50 (IL-6 levels) (converted)
Experimental: Activation of monocytic cells by agonists of toll-like receptors such as bacterial lipopolysaccharide (LPS) results in production of key inflammatory mediators including IL-6. Such pathways are widely considered to be central to the pathophysiology of a range of auto-immune and inflammatory disorders.
After further incubation for 24 hours at 37 degrees, 140 ul of PBS are added to each well. The plates are sealed, shaken for 10 minutes and then centrifuged (2500 rpm×10 min). 100 ul of the supernatant are removed and IL-6 levels assayed by immunoassay (typically by MesoScale Discovery technology) either immediately or following storage at −20 degrees.

Structure (SMILES) | melting point | IC50 [1]
Cc1nnc2n1-c1ccc(O)cc1C(c1ccc(Cl)cc1)=N[C@H]2CC(=O)Nc1ccc(F)cc1 | 222 °C (dec.) | –
COc1ccc2c(c1)C(c1ccc(Cl)cc1)=N[C@@H](CC(=O)NC1CCCCC1)c1nnc(C)n1-2 (stereo in doubt) | > 260 °C | –
COc1ccc2c(c1)C(c1ccc(Cl)cc1)=N[C@@H](CC(=O)Nc1ccccc1F)c1nnc(C)n1-2 [Example 9, 2-[(4S)-6-(4-chlorophenyl)-1-methyl-8-(methyloxy)-4H-[1,2,4]triazolo[4,3-a][1,4]benzodiazepin-4-yl]-N-(2-fluorophenyl)acetamide] | 264 °C | ≤ 10 µM
COc1ccc2c(c1)C(c1ccc(Cl)cc1)=N[C@@H](CC(=O)Nc1cccc(F)c1)c1nnc(C)n1-2 [Example 10, 2-[(4S)-6-(4-chlorophenyl)-1-methyl-8-(methyloxy)-4H-[1,2,4]triazolo[4,3-a][1,4]benzodiazepin-4-yl]-N-(3-fluorophenyl)acetamide] | 248 °C | ≤ 10 µM
COc1ccc2c(c1)C(c1ccc(Cl)cc1)=N[C@@H](CC(=O)Nc1ccncc1)c1nnc(C)n1-2 [Example 14, 2-[(4S)-6-(4-chlorophenyl)-1-methyl-8-(methyloxy)-4H-[1,2,4]triazolo[4,3-a][1,4]benzodiazepin-4-yl]-N-4-pyridinylacetamide] | 223 °C | –
COc1ccc2c(c1)C(c1ccc(Cl)cc1)=N[C@@H](CC(=O)Nc1nccs1)c1nnc(C)n1-2 [Example 15, 2-[(4S)-6-(4-chlorophenyl)-1-methyl-8-(methyloxy)-4H-[1,2,4]triazolo[4,3-a][1,4]benzodiazepin-4-yl]-N-1,3-thiazol-2-ylacetamide] | 249 °C | ≤ 10 µM
